From patent US9732119B2, “Immunomodulators” (BRISTOL-MYERS SQUIBB COMPANY, priority 2014, dated 2017)

Target: T1, PD-1-Ig binding to PD-L1-TVMV-His (PD-L1-His) (Homo sapiens, UniProt Q9NZQ7)
T1 construct: hPDL1(19-239)-TVMV-His; made in house; host or cells: HEK293T cells
Experiment: PD-1/PD-L1 Homogenous Time-Resolved Fluorescence (HTRF) binding assay
Settings: PD-1-Ig (20 nM) / PD-L1-His (10 nM); numeric values
In short: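 In dPBS with 0.1% BSA and 0.05% Tween-20, inhibitors were preincubated 15 min with 10 nM PD-L1-His before 20 nM PD-1-Ig was added for another 15 min. Binding read by time-resolved FRET between Eu-cryptate anti-Ig (1 nM) and APC anti-His (20 nM).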

T1 sequence (Q9NZQ7 with tags, fused parts or gaps): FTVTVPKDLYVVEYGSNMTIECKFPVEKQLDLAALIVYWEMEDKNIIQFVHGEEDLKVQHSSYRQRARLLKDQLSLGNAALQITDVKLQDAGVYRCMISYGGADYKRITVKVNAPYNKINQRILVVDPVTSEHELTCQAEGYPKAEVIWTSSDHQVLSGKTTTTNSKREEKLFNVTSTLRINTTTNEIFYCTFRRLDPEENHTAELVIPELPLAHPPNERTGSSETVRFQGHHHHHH

Row | IC50 [nM] | SMILES
1 | 70 | CCCC[C@H]1C(=O)N(C)[C@@H](CCCC)C(=O)N[C@@H](C)C(=O)N[C@H](C(=O)NCC(N)=O)CCCNCC(=O)N[C@@H](Cc2ccc(O)cc2)C(=O)N(C)[C@@H](C)C(=O)N[C@@H](CC(=O)O)C(=O)N2CCC[C@H]2C(=O)N[C@@H](Cc2cnc[nH]2)C(=O)N[C@@H](CCC(N)=O)C(=O)N2C[C@H](O)C[C@H]2C(=O)N[C@@H](Cc2c[nH]c3ccccc23)C(=O)N[C@@H](CO)C(=O)N[C@@H](Cc2c[nH]c3ccccc23)C(=O)N1C [Example 10013]
2 | 6.95 | CCCC[C@H]1C(=O)N(C)[C@@H](CCCC)C(=O)N[C@@H](CC(C)C)C(=O)N[C@H](C(=O)NCC(N)=O)CCNCC(=O)N[C@@H](Cc2ccc(O)cc2)C(=O)N(C)[C@@H](C)C(=O)N[C@@H](CC(N)=O)C(=O)N2CCC[C@H]2C(=O)N[C@@H](Cc2cnc[nH]2)C(=O)N[C@@H](CC(C)C)C(=O)N2C[C@H](O)C[C@H]2C(=O)N[C@@H](Cc2c[nH]c3ccccc23)C(=O)NCC(=O)N[C@@H](Cc2c[nH]c3ccccc23)C(=O)N1C [Example 10027]

Same assay, conditions: PD-1-Ig (20 nM) / PD-L1-His (10 nM); range classes

Row | SMILES | IC50 [nM]
3 | CCCC[C@H]1C(=O)N(C)[C@@H](CCCC)C(=O)N[C@@H](CC(C)C)C(=O)N[C@H](C(=O)NCC(N)=O)CCCNCC(=O)N[C@@H](Cc2ccccc2)C(=O)N(C)[C@@H](C)C(=O)N[C@@H](CC(C)C)C(=O)N2CCC[C@H]2C(=O)N[C@@H](CC(C)C)C(=O)N[C@@H](CC(C)C)C(=O)N2CCC[C@H]2C(=O)N[C@@H](Cc2c[nH]c3ccccc23)C(=O)N[C@@H](CC(C)C)C(=O)N[C@@H](Cc2c[nH]c3ccccc23)C(=O)N1C [Example 10010] | 100 to 10000
4 | CCCC[C@H]1C(=O)N(C)[C@@H](CCCC)C(=O)N[C@@H](C)C(=O)N[C@H](C(=O)NCC(N)=O)CNCC(=O)N[C@@H](Cc2ccc(O)cc2)C(=O)N(C)[C@@H](C)C(=O)N[C@@H](CC(=O)O)C(=O)N2CCC[C@H]2C(=O)N[C@@H](Cc2cnc[nH]2)C(=O)N[C@@H](CCC(N)=O)C(=O)N2C[C@H](O)C[C@H]2C(=O)N[C@@H](Cc2c[nH]c3ccccc23)C(=O)N[C@@H](CO)C(=O)N[C@@H](Cc2c[nH]c3ccccc23)C(=O)N1C [Example 10011] | 1 to 9.9
5 | CCCC[C@H]1C(=O)N(C)[C@@H](CCCC)C(=O)N[C@@H](C)C(=O)N[C@H](C(=O)NCC(N)=O)CNCC(=O)N[C@@H](Cc2ccc(O)cc2)C(=O)N(C)[C@@H](C)C(=O)N[C@@H](CC(=O)O)C(=O)N2CCC[C@H]2C(=O)N[C@@H](Cc2cnc[nH]2)C(=O)N[C@@H](CCC(N)=O)C(=O)N2C[C@H](O)C[C@H]2C(=O)N[C@@H](Cc2c[nH]c3ccccc23)C(=O)N[C@@H](CO)C(=O)N[C@@H](Cc2cn(CC(=O)O)c3ccccc23)C(=O)N1C [Example 10014] | 1 to 9.9
6 | CCCC[C@H]1C(=O)N(C)[C@@H](CCCC)C(=O)N[C@@H](CC(C)C)C(=O)N[C@H](C(=O)NCC(N)=O)CCNCC(=O)N[C@@H](Cc2ccc(O)cc2)C(=O)N(C)[C@@H](C)C(=O)N[C@@H](CC(N)=O)C(=O)N2CCC[C@H]2C(=O)N[C@@H](Cc2cnc[nH]2)C(=O)N[C@@H](CCC(N)=O)C(=O)N2C[C@H](O)C[C@H]2C(=O)N[C@@H](Cc2c[nH]c3ccccc23)C(=O)NCC(=O)N[C@@H](Cc2c[nH]c3ccccc23)C(=O)N1C [Example 10018] | 10 to 99
7 | CCCC[C@H]1C(=O)N(C)[C@@H](CCCC)C(=O)N[C@@H](CC(C)C)C(=O)N[C@H](C(=O)NCC(N)=O)CNCC(=O)N[C@@H](Cc2ccc(O)cc2)C(=O)N(C)[C@@H](C)C(=O)N[C@@H](CC(N)=O)C(=O)N2CCC[C@H]2C(=O)N[C@@H](Cc2cnc[nH]2)C(=O)N[C@@H](CCC(N)=O)C(=O)N2C[C@H](O)C[C@H]2C(=O)N[C@@H](Cc2c[nH]c3ccccc23)C(=O)NCC(=O)N[C@@H](Cc2cn(CC(=O)O)c3ccccc23)C(=O)N1C [Example 10020] | 10 to 99
8 | CCCC[C@H]1C(=O)N(C)[C@@H](CCCC)C(=O)N[C@@H](CO)C(=O)N[C@H](C(=O)NCC(N)=O)CNCC(=O)N[C@@H](Cc2ccc(O)cc2)C(=O)N(C)[C@@H](C)C(=O)N[C@@H](CC(N)=O)C(=O)N2CCC[C@H]2C(=O)N[C@@H](Cc2cnc[nH]2)C(=O)N[C@@H](CCC(N)=O)C(=O)N2C[C@H](O)C[C@H]2C(=O)N[C@@H](Cc2c[nH]c3ccccc23)C(=O)N[C@@H](CO)C(=O)N[C@@H](Cc2c[nH]c3ccccc23)C(=O)N1C [Example 10024] | 10 to 99
9 | CCCC[C@H]1C(=O)N(C)[C@@H](CCCC)C(=O)N[C@@H](CC(C)C)C(=O)N[C@H](C(=O)NCC(N)=O)CNCC(=O)N[C@@H](Cc2ccc(O)cc2)C(=O)N(C)[C@@H](C)C(=O)N[C@@H](CC(N)=O)C(=O)N2CCC[C@H]2C(=O)N[C@@H](Cc2cnc[nH]2)C(=O)N[C@@H](CC(C)C)C(=O)N2C[C@H](O)C[C@H]2C(=O)N[C@@H](Cc2c[nH]c3ccccc23)C(=O)NCC(=O)N[C@@H](Cc2c[nH]c3ccccc23)C(=O)N1C [Example 10026] | 10 to 99

Other lines, results leading:

Row | IC50 [nM] | SMILES
10 | 10 to 99 | CCCC[C@H]1C(=O)N(C)[C@@H](CCCC)C(=O)N[C@@H](C)C(=O)N[C@H](C(=O)NCC(N)=O)CCNCC(=O)N[C@@H](Cc2ccc(O)cc2)C(=O)N(C)[C@@H](C)C(=O)N[C@@H](CC(=O)O)C(=O)N2CCC[C@H]2C(=O)N[C@@H](Cc2cnc[nH]2)C(=O)N[C@@H](CCC(N)=O)C(=O)N2C[C@H](O)C[C@H]2C(=O)N[C@@H](Cc2c[nH]c3ccccc23)C(=O)N[C@@H](CO)C(=O)N[C@@H](Cc2c[nH]c3ccccc23)C(=O)N1C [Example 10012]
11 | 1 to 9.9 | CCCC[C@H]1C(=O)N(C)[C@@H](CCCC)C(=O)N[C@@H](C)C(=O)N[C@H](C(=O)NCC(N)=O)CCNCC(=O)N[C@@H](Cc2ccc(O)cc2)C(=O)N(C)[C@@H](C)C(=O)N[C@@H](CC(=O)O)C(=O)N2CCC[C@H]2C(=O)N[C@@H](Cc2cnc[nH]2)C(=O)N[C@@H](CCC(N)=O)C(=O)N2C[C@H](O)C[C@H]2C(=O)N[C@@H](Cc2c[nH]c3ccccc23)C(=O)N[C@@H](CO)C(=O)N[C@@H](Cc2cn(CC(=O)O)c3ccccc23)C(=O)N1C [Example 10015]
12 | 1 to 9.9 | CCCC[C@H]1C(=O)N(C)[C@@H](CCCC)C(=O)N[C@@H](C)C(=O)N[C@H](C(=O)NCC(N)=O)CCCNCC(=O)N[C@@H](Cc2ccc(O)cc2)C(=O)N(C)[C@@H](C)C(=O)N[C@@H](CC(=O)O)C(=O)N2CCC[C@H]2C(=O)N[C@@H](Cc2cnc[nH]2)C(=O)N[C@@H](CCC(N)=O)C(=O)N2C[C@H](O)C[C@H]2C(=O)N[C@@H](Cc2c[nH]c3ccccc23)C(=O)N[C@@H](CO)C(=O)N[C@@H](Cc2cn(CC(=O)O)c3ccccc23)C(=O)N1C [Example 10016]
13 | 1 to 9.9 | CCCC[C@H]1C(=O)N(C)[C@@H](CCCC)C(=O)N[C@@H](CC(C)C)C(=O)N[C@H](C(=O)NCC(N)=O)CNCC(=O)N[C@@H](Cc2ccc(O)cc2)C(=O)N(C)[C@@H](C)C(=O)N[C@@H](CC(N)=O)C(=O)N2CCC[C@H]2C(=O)N[C@@H](Cc2cnc[nH]2)C(=O)N[C@@H](CCC(N)=O)C(=O)N2C[C@H](O)C[C@H]2C(=O)N[C@@H](Cc2c[nH]c3ccccc23)C(=O)NCC(=O)N[C@@H](Cc2c[nH]c3ccccc23)C(=O)N1C [Example 10017]
14 | 100 to 10000 | CCCC[C@H]1C(=O)N(C)[C@@H](CCCC)C(=O)N[C@@H](CC(C)C)C(=O)N[C@H](C(=O)NCC(N)=O)CCCNCC(=O)N[C@@H](Cc2ccc(O)cc2)C(=O)N(C)[C@@H](C)C(=O)N[C@@H](CC(N)=O)C(=O)N2CCC[C@H]2C(=O)N[C@@H](Cc2cnc[nH]2)C(=O)N[C@@H](CCC(N)=O)C(=O)N2C[C@H](O)C[C@H]2C(=O)N[C@@H](Cc2c[nH]c3ccccc23)C(=O)NCC(=O)N[C@@H](Cc2c[nH]c3ccccc23)C(=O)N1C [Example 10019]
15 | 10 to 99 | CCCC[C@H]1C(=O)N(C)[C@@H](CCCC)C(=O)N[C@@H](CC(C)C)C(=O)N[C@H](C(=O)NCC(N)=O)CCNCC(=O)N[C@@H](Cc2ccc(O)cc2)C(=O)N(C)[C@@H](C)C(=O)N[C@@H](CC(N)=O)C(=O)N2CCC[C@H]2C(=O)N[C@@H](Cc2cnc[nH]2)C(=O)N[C@@H](CCC(N)=O)C(=O)N2C[C@H](O)C[C@H]2C(=O)N[C@@H](Cc2c[nH]c3ccccc23)C(=O)NCC(=O)N[C@@H](Cc2cn(CC(=O)O)c3ccccc23)C(=O)N1C [Example 10021]
16 | 10 to 99 | CCCC[C@H]1C(=O)N(C)[C@@H](CCCC)C(=O)N[C@@H](CC(C)C)C(=O)N[C@H](C(=O)NCC(N)=O)CCCNCC(=O)N[C@@H](Cc2ccc(O)cc2)C(=O)N(C)[C@@H](C)C(=O)N[C@@H](CC(N)=O)C(=O)N2CCC[C@H]2C(=O)N[C@@H](Cc2cnc[nH]2)C(=O)N[C@@H](CCC(N)=O)C(=O)N2C[C@H](O)C[C@H]2C(=O)N[C@@H](Cc2c[nH]c3ccccc23)C(=O)NCC(=O)N[C@@H](Cc2cn(CC(=O)O)c3ccccc23)C(=O)N1C [Example 10022]
17 | 100 to 10000 | CCCC[C@H]1C(=O)N(C)[C@@H](CCCC)C(=O)N[C@@H](CCC(=O)O)C(=O)N[C@H](C(=O)NCC(N)=O)CCNCC(=O)N[C@@H](Cc2ccc(O)cc2)C(=O)N(C)[C@@H](C)C(=O)N[C@@H](CC(=O)O)C(=O)N2CCC[C@H]2C(=O)N[C@@H](Cc2cnc[nH]2)C(=O)N[C@@H](CCC(N)=O)C(=O)N2C[C@H](O)C[C@H]2C(=O)N[C@@H](Cc2c[nH]c3ccccc23)C(=O)N[C@@H](CO)C(=O)N[C@@H](Cc2c[nH]c3ccccc23)C(=O)N1C [Example 10023]
18 | 100 to 10000 | CCCC[C@H]1C(=O)N(C)[C@@H](CCCC)C(=O)N[C@@H](CO)C(=O)N[C@H](C(=O)NCC(N)=O)CCCNCC(=O)N[C@@H](Cc2ccc(O)cc2)C(=O)N(C)[C@@H](C)C(=O)N[C@@H](CC(N)=O)C(=O)N2CCC[C@H]2C(=O)N[C@@H](Cc2cnc[nH]2)C(=O)N[C@@H](CCC(N)=O)C(=O)N2C[C@H](O)C[C@H]2C(=O)N[C@@H](Cc2c[nH]c3ccccc23)C(=O)N[C@@H](CO)C(=O)N[C@@H](Cc2c[nH]c3ccccc23)C(=O)N1C [Example 10025]
